According to patent US5972946A, “Acetamide derivative, process for preparing the same, and a pharmaceutical composition containing the same” (Dainippon Pharmaceutical Co., Ltd., priority 1995, dated 1999):

These compounds were tested against peripheral (ω3) benzodiazepine (BZ) receptor (Rattus norvegicus, UniProt P16257) (assay: BZω3 (peripheral-type) benzodiazepine receptor binding assay).
Protocol: Experiment 1: Central (ω1, ω2) and peripheral (ω3) benzodiazepine (BZ) receptor binding assays
BZω1 and BZω2 receptor binding assays were carried out according to the method of Stephens, D. N. et al. [cf.
Receptor membrane fractions for ω1, ω2 and ω3 were prepared from the cerebellum (ω1), spinal cord (ω1) or kidney (ω3) in 7-8 week old male rats of Wistar strain by the procedure described below.
After the cerebellum or spinal cord was homogenized with 20 volumes of ice-cold 50 mM Tris-citrate buffer (pH 7.1), the homogenate was centrifuged for 15 minutes at 40,000 g. The pellet obtained was washed 4 times by the same procedure, frozen and stored for 24 hours at -60° C. The resulting pellet, after being thawed, washed with the buffer and centrifuged, was suspended in the buffer I for the binding assay (50 mM Tris-HCl buffer containing 120 mM NaCl, 5 mM KCl, 2 mM CaCl2 and 1 mM MgCl2 ; pH 7.4) and the suspension thus obtained (containing 1 g wet tissue/40 ml) was used for the BZω1 and BZω2 receptor binding assays. On the other hand, the kidney was homogenized with 20 volumes of the ice-cold buffer II for the binding assay (50 mM Na--K phosphate buffer containing 100 mM NaCl; pH 7.4), filtered through 4 sheets of gauze, and centrifuged for 20 minutes at 40,000 g. The pellet obtained was suspended in the buffer II and the suspension (containing 1 g wet tissue/100 ml) was used for the binding assay as BZω3 receptor membrane source.
Flumazenil (final concentration: 0.3 nM for (ω1 and 1 nM for ω2) and flunitrazepam (final concentration: 10 μM) were used for the BZω1 or BZω2 receptor binding assays as the isotope-labeled and unlabeled ligands, respectively. For the BZω3 receptor binding assay, [^3 H] 4'-chlorodiazepam (7-chloro-1,3-dihydro-1-methyl-5-(4-chlorophenyl)-2H-1,4-benzodiazepin-2-one) (final concentration: 0.5 nM) and diazepam (final concentration: 100 μM) were used as the isotope-labeled and unlabeled ligands, respectively. Incubation was performed for 30 minutes at 37° C. in the BZω1 or BZω2 receptor binding assays, and for 150 minutes at 0° C. in the BZω3 receptor binding assay. The BZω1 or BZω2 receptor binding assays were carried out in the presence of bicuculline (final concentration: 100 μM).
The binding assay was performed by the following procedure. After adding each test compound at certain known concentrations, a [^3 H] ligand and the buffer I or II to each test tube, each assay was started by addition of membrane preparation (total volume of 1 ml). After incubation, the assay was terminated by filtration with suction through a Whatman GF/B glass fiber filter using a cell harvester (Brandel, USA). The filters were rapidly washed 3 times with 5 ml of ice-cold 50 mM Tris-HCl buffer (pH 7.7) for ω1 and ω2, or the buffer II forω3, and transferred to scintillation vials containing 10 ml liquid scintillation cocktail (ACS-II, Amersham, USA). After a few hours, retained radioactivity was counted by a liquid scintillation spectrometer. Specific binding of [^3 H] ligands was calculated as the difference between amounts of radioactivity bound in the presence and absence of excess unlabeled ligands.

Row | Compound | IC50 [nM]
1 | CCCN(CCC)C(=O)COc1nc(-c2cccc(Cl)c2)nc2c1CCCC2 [Example 130] | 1.31
2 | CN(C(=O)CNc1nc(-c2ccccc2)ncc1N)c1ccccc1 [Example 124, 2-(5-amino-2-phenyl-4-pyrimidinylamino)-N-methyl-N-phenylacetamide] | 5.35
3 | CCCN(CCC)C(=O)COc1nc(-c2ccc(F)cc2)nc2c1CCCC2 [Example 128, 2-[2-(4-fluorophenyl)-5,6,7,8-tetrahydro-4-quinazolinyloxy]-N,N-dipropylacetamide] | 0.79
4 | CN(C(=O)COc1nc(-c2ccc(Cl)cc2)nc2c1CCCC2)c1ccccc1 [Example 181] | 1.61
5 | CCN(C(=O)CNc1nc(-c2ccccc2)nc(C)c1C)c1ccc(Cl)cc1 [Example 51] | 0.32
6 | Cc1nc(-c2ccccc2)nc(OCC(=O)N(C)c2ccc(Cl)cc2)c1C [Example 149] | 1.14
7 | Cc1nc(-c2ccccc2)nc(OCC(=O)N2CC(C)CC(C)C2)c1C (centres unmarked) [Example 170, 3,5-dimethyl-1-(5,6-dimethyl-2-phenyl-4-pyrimidinyloxy)acetylpiperidine] | 0.99
8 | Cc1nc(-c2ccccc2)nc(OCC(=O)N(C)c2ccccc2)c1C [Example 143] | 1.4
9 | CCCCN(CCCC)C(=O)COc1nc(-c2ccccc2)nc2c1CCCC2 [Example 133] | 2.2
10 | CCN(CC)C(=O)COc1nc(-c2ccccc2)nc(C)c1C [Example 175] | 1.9
11 | CCCCN(CCCC)C(=O)COc1nc(-c2ccc(Cl)cc2)nc2c1CCCC2 [Example 135] | 3.17
12 | CCCN(CCC)C(=O)CNc1nc(-c2ccccc2)nc(-c2ccccc2)c1C [Example 97] | 2.27
13 | CN(C(=O)COc1nc(-c2ccccc2)nc2c1CCCC2)c1ccc(F)cc1 [Example 184] | 0.82
14 | CCCN(CCC)C(=O)CNc1nc(-c2ccc(Cl)cc2)nc2c1CCCC2 [Example 104] | 3.44
15 | CN(Cc1ccccc1)C(=O)COc1nc(-c2ccccc2)nc2c1CCCC2 [Example 188] | 5.24
16 | CCCCN(CCCC)C(=O)CNc1nc(-c2ccccc2)nc2c1CCCC2 [Example 105] | 4.18
17 | CCCN(CCC)C(=O)COc1cc(-c2ccccc2)nc(-c2ccccc2)n1 [Example 158] | 4.07
18 | CCCN(CCC)C(=O)COc1nc(-c2ccc(Cl)cc2)nc(C)c1C [Example 137] | 0.93
19 | CN(C(=O)CNc1nc(-c2ccc(Cl)cc2)nc2c1CCCC2)c1ccc(Cl)cc1 [Example 109] | 2.09
20 | CCCN(C(=O)COc1nc(-c2ccccc2)nc2c1CCCC2)c1ccccc1 [Example 182] | 4.57
21 | CCCN(CCC)C(=O)COc1nc(-c2ccccc2)nc(C)c1Br [Example 168, 2-(5-bromo-6-methyl-2-phenyl-4-pyrimidinyloxy)-N,N-dipropylacetamide] | 0.99
22 | CCCN(CCC)C(=O)COc1nc(-c2ccccc2)nc(C)c1Cl [Example 167, 2-(5-chloro-6-methyl-2-phenyl-4-pyrimidinyloxy)-N,N-dipropylacetamide] | 0.79
23 | CCCN(CCC)C(=O)COc1nc(-c2ccc(Cl)cc2)nc2c1CCCC2 [Example 131] | 0.89
24 | CCCN(CCC)C(=O)CNc1nc(-c2ccccc2)ncc1CO [Example 127, 2-(5-hydroxymethyl-2-phenyl-4-pyrimidinylamino)-N,N-dipropylacetamide] | 4.35
25 | CN(C(=O)COc1nc(-c2ccccc2)nc2c1CCCC2)c1cccc(Cl)c1 [Example 187] | 9.71

Row | Compound | IC50 [nM]
26 | CCCN(CCC)C(=O)COc1cc(C)nc(-c2ccccc2)n1 [Example 166, 2-(6-methyl-2-phenyl-4-pyrimidinyloxy)-N,N-dipropylacetamide] | 5.4
27 | CCCN(CCC)C(=O)C(CO)Nc1nc(-c2ccccc2)nc(C)c1C (centres unmarked) [Example 69, 3-hydroxy-2-(5,6-dimethyl-2-phenyl-4-pyrimidinylamino)-N,N-dipropylpropanamide] | 2.75
28 | Cc1nc(-c2cccc(Cl)c2)nc(OCC(=O)N(C)c2ccccc2)c1C [Example 145] | 1.6
29 | CCCN(CCC)C(=O)CNc1nc(-c2ccccc2)nc(CC)c1C [Example 85, 2-(6-ethyl-5-methyl-2-phenyl-4-pyrimidinylamino)-N,N-dipropylacetamide] | 0.18
30 | CCCN(CCC)C(=O)CNc1nc(-c2ccccc2)nc2c1CCCC2 [Example 102, 2-(5,6,7,8-tetrahydro-2-phenyl-4-quinazolinylamino)-N,N-dipropylacetamide] | 3.31
31 | CCCN(CCC)C(=O)COc1nc(-c2ccccc2)nc(-c2ccccc2)c1C [Example 159] | 2
32 | CCCN(CCC)C(=O)CNc1nc(-c2ccc(F)cc2)nc2c1CCCC2 [Example 103] | 2.9
33 | CCN(C(=O)CNc1nc(-c2ccc(C(F)(F)F)cc2)nc(C)c1C)c1ccccc1 [Example 49] | 0.23
34 | CCCN(CCC)C(=O)CN(C)c1nc(-c2ccccc2)nc(C)c1C [Example 70, 2-[methyl-(5,6-dimethyl-2-phenyl-4-pyrimidinyl)amino]-N,N-dipropylacetamide] | 1.12
35 | CCCN(CCC)C(=O)C(CO)Nc1nc(-c2ccccc2)nc2c1CCCC2 (centres unmarked) [Example 118, 3-hydroxy-2-(5,6,7,8-tetrahydro-2-phenyl-4-quinazolinylamino)-N,N-dipropylpropanamide] | 1.07
36 | CCc1c(C)nc(-c2ccccc2)nc1OCC(=O)N(C)c1ccc(Cl)cc1 [Example 156] | 4.96
37 | Cc1nc(-c2ccc(C(F)(F)F)cc2)nc(OCC(=O)N(C)c2ccccc2)c1C [Example 147] | 0.52
38 | CCCCN(CCCC)C(=O)COc1nc(-c2ccc(F)cc2)nc2c1CCCC2 [Example 134] | 3.07
39 | Cc1nc(-c2ccccc2)nc(N(C)CC(=O)N(C)c2ccc(Cl)cc2)c1C [Example 76] | 1.33
40 | CCCN(CCC)C(=O)CN(C)c1nc(-c2ccccc2)nc2c1CCCC2 [Example 110] | 1.99
41 | CC1CN(C(=O)COc2nc(-c3ccc(Cl)cc3)nc3c2CCCC3)CC(C)O1 (centres unmarked) [Example 195, 4-[2-(4-Chlorophenyl)-5,6,7,8-tetrahydro-4-quinazolinyloxy] acetyl-2,6-dimethylmorpholine] | 2
42 | CCCCN(CCCC)C(=O)CNc1nc(-c2ccc(Cl)cc2)nc2c1CCCC2 [Example 107] | 4.23
43 | Cc1nc(-c2ccc(Cl)cc2)nc(NCC(=O)N2CC(C)OC(C)C2)c1C (centres unmarked) [Example 68, 4-[2-(4-Chlorophenyl)-5,6-dimethyl-4-pyrimidinylamino]acetyl-2,6-dimethylmorpholine] | 2.19
44 | CCN(CC)C(=O)COc1nc(-c2ccccc2)nc2c1CCCC2 [Example 179] | 4.3
45 | CN(CC(=O)N(C)c1ccc(Cl)cc1)c1nc(-c2ccccc2)nc2c1CCCC2 [Example 111] | 2.05
46 | CCCCN(CCCC)C(=O)CNc1nc(-c2ccc(Cl)cc2)nc(C)c1C [Example 15] | 3.86
47 | CCc1c(C)nc(-c2ccccc2)nc1NCC(=O)N(C)c1ccc(Cl)cc1 [Example 84, N-(4-chlorophenyl)-2-(5-ethyl-6-methyl-2-phenyl-4-pyrimidinylamino)-N-methylacetamide] | 2.04
48 | CCCN(CCC)C(=O)COc1nc(-c2ccc(C(F)(F)F)cc2)nc(C)c1C [Example 141] | 0.11
49 | Cc1nc(-c2ccc(C(F)(F)F)cc2)nc(NCC(=O)N(C)c2ccccc2)c1C [Example 27] | 0.11
50 | COc1ccc(-c2nc(C)c(C)c(NCC(=O)N(C)c3ccccc3)n2)cc1 [Example 26] | 0.28
